Laboratory results taken from patent publication US7524867B2, “Tetrasubstituted imidazole derivatives as cannabinoid CB1 receptor modulators with a high CB1/CB2 receptor subtype selectivity” (Solvay Pharmaceuticals, B.V., priority 2004, dated 2009).
pKi: −log10 of the molar value. Like-named read-outs stand apart in the source and are kept apart here.

Tests used:
[1] = target: T1, human cannabinoid CB2 receptor (Homo sapiens, UniProt P34972); test: In vitro affinity for cannabinoid-CB2 receptors ([3H]CP-55,940 radioligand binding, CHO cell membranes); conditions: membranes of CHO cells stably transfected with human CB2, mean of at least three independent experiments
T1 construct: expressed in transfected cells; host or cells: Chinese hamster ovary (CHO) cells, stably transfected; membrane preparation
T1 sequence (P34972 whole entry): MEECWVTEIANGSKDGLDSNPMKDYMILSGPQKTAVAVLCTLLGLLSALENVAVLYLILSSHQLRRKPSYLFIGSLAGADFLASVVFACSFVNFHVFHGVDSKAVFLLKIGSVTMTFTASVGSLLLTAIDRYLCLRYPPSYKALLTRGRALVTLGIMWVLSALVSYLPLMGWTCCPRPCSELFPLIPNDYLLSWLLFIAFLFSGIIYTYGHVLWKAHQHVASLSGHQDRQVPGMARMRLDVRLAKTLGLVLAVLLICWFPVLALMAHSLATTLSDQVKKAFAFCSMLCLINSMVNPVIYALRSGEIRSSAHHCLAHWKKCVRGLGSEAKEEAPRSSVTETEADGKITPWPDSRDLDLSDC
Procedure: In Vitro Affinity for Cannabinoid-CB2 Receptors
The affinity of the compounds of the invention for cannabinoid CB2 receptors can be determined using membrane preparations of Chinese hamster ovary (CHO) cells in which the human cannabinoid CB2 receptor is stably transfected in conjunction with [^3H]CP-55,940 as radioligand. After incubation of a freshly prepared cell membrane preparation with the [^3H]-ligand, with or without addition of compounds of the invention, separation of bound and free ligand is performed by filtration over glassfiber filters. Radioactivity on the filter is measured by liquid scintillation counting.

[2] = target: T2, human cannabinoid CB1 receptor (Homo sapiens, UniProt P21554); test: In vitro affinity for cannabinoid-CB1 receptors ([3H]CP-55,940 radioligand binding, CHO cell membranes); conditions: for CB1/CB2 ratio: CB1/CB2 receptor subtype selectivity (affinity ratio; numerically CB2 nM value divided by CB1 nM value)
T2 construct: expressed in transfected cells; host or cells: Chinese hamster ovary (CHO) cells, stably transfected; membrane preparation
T2 sequence (P21554 whole entry): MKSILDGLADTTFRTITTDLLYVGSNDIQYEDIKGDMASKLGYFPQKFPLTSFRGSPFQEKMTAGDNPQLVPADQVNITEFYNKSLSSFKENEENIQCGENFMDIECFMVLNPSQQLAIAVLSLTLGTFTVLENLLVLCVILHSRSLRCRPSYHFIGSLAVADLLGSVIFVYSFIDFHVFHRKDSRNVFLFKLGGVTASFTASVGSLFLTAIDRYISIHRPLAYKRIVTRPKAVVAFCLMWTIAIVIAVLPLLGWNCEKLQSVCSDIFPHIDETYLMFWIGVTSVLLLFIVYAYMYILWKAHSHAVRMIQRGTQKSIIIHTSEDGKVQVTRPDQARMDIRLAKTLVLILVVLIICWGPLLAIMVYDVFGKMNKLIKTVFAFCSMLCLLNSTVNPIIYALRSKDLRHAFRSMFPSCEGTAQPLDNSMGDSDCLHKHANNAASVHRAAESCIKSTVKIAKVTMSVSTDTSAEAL
Procedure: In Vitro Affinity for Cannabinoid-CB1 Receptors
After incubation of a freshly prepared cell membrane preparation with the [^3H]-ligand, with or without addition of compounds of the invention, separation of bound and free ligand is performed by filtration over glassfiber filters. Radioactivity on the filter is measured by liquid scintillation counting.
The affinity of the compounds of the invention for CB1 receptors was determined as described above. […] Pharmacokinetic, pharmacodynamic, and other considerations may alter the dose actually administered to a higher or lower value. The dosage expediently administered is 0.001-1000 mg/kg, preferably 0.1-100 mg/kg of patient's bodyweight.

| pKi ([2]; receptor affinity, membranes of CHO cells stably transfected with human CB1, [3H]CP-55,940, mean of at least three independent experiments, read-out: CB1) | melting point [°C] | SMILES | pKi [1] | CB1/CB2 ratio [2] | pKi [2] |
| --- | --- | --- | --- | --- | --- |
| 8.15 |  | CSc1c(C(=O)NN2CCCCCC2)nc(-c2ccc(Cl)cc2Cl)n1-c1ccc(Cl)cc1 [compound 10, 1-(4-chlorophenyl)-2-(2,4-dichlorophenyl)-5-methylsulfanyl-N-(azepan-1-yl)-1H-imidazole-4-carboxamide] | < 6.00 | >142 |  |
|  | 192 to 193 | CSc1c(C(=O)NN2CCCCC2)nc(-c2ccccc2Cl)n1-c1ccc(Cl)cc1 |  |  |  |
|  |  | CSc1c(C(=O)NN2CCCC2)nc(-c2ccc(Cl)cc2Cl)n1-c1ccc(Cl)cc1 [compound 9, 1-(4-chlorophenyl)-2-(2,4-dichlorophenyl)-5-methylsulfanyl-N-(pyrrolidin-1-yl)-1H-imidazole-4-carboxamide] | < 6.00 | >200 | 8.30 |
|  |  | CSc1c(C(=O)NN2CCCCC2)nc(-c2ccc(Cl)cc2Cl)n1-c1ccc(Cl)cc1 [compound 6, 1-(4-Chlorophenyl)-2-(2,4-dichlorophenyl)-5-methylsulfanyl-N-(piperdin-1-yl)-1H-imidazole-4-carboxamide] | 5.69 | 171 |  |
|  |  | CS(=O)(=O)c1c(C(=O)NN2CCCCC2)nc(-c2ccc(Cl)cc2Cl)n1-c1ccc(Cl)cc1 [compound 1, 1-(4-Chlorophenyl)-2-(2,4-dichlorophenyl)-5-methylsulfonyl-N-(piperidin-1-yl)-1H-imidazole-4-carboxamide] | 5.12 | 638 | 7.92 |
